# Test results published in ChEMBL document CHEMBL5634117 (Eur J Med Chem, 2023).
# Calls of active or inactive are those of the source. No cut-off for these calls is given here.
# Assays:
# [1] = target: Mitogen-activated protein kinase 10 (Homo sapiens, UniProt P53779); experiment: Inhibition of human JNK3 at 10 uM in presence of ATP relative to control
# [2] = system: Hs-578T; experiment: Growth inhibition of human Hs-578T cells assessed as reduction in cell viability measured after 48 hrs by SRB assay; assay type: functional
# [3] = system: MOLT-4; experiment: Growth inhibition of human MOLT-4 cells assessed as reduction in cell viability measured after 48 hrs by SRB assay; assay type: functional
# [4] = system: NCI-H322M; experiment: Growth inhibition of human NCI-H322M cells assessed as reduction in cell viability measured after 48 hrs by SRB assay; assay type: functional
# [5] = system: NCI-H522; experiment: Growth inhibition of human NCI-H522 cells assessed as reduction in cell viability measured after 48 hrs by SRB assay; assay type: functional
# [6] = system: Malme-3M; experiment: Growth inhibition of human Malme-3M cells assessed as reduction in cell viability measured after 48 hrs by SRB assay; assay type: functional
# [7] = system: CCRF-CEM; experiment: Growth inhibition of human CCRF-CEM cells assessed as reduction in cell viability measured after 48 hrs by SRB assay; assay type: functional
# [8] = system: SF-539; experiment: Growth inhibition of human SF-539 cells assessed as reduction in cell viability measured after 48 hrs by SRB assay; assay type: functional
# [9] = system: UACC-62; experiment: Growth inhibition of human UACC-62 cells assessed as reduction in cell viability measured after 48 hrs by SRB assay; assay type: functional
# [10] = system: BT-549; experiment: Growth inhibition of human BT-549 cells assessed as reduction in cell viability measured after 48 hrs by SRB assay; assay type: functional
# [11] = system: MDA-MB-468; experiment: Growth inhibition of human MDA-MB-468 cells assessed as reduction in cell viability measured after 48 hrs by SRB assay; assay type: functional
# [12] = system: DU-145; experiment: Growth inhibition of human DU-145 cells assessed as reduction in cell viability measured after 48 hrs by SRB assay; assay type: functional
# [13] = system: SW-620; experiment: Growth inhibition of human SW620 cells assessed as reduction in cell viability measured after 48 hrs by SRB assay; assay type: functional
# [14] = system: SN12C; experiment: Growth inhibition of human SN12C cells assessed as reduction in cell viability measured after 48 hrs by SRB assay; assay type: functional
# [15] = system: NCI-H460; experiment: Growth inhibition of human NCI-H460 cells assessed as reduction in cell viability measured after 48 hrs by SRB assay; assay type: functional
# [16] = system: HOP-62; experiment: Growth inhibition of human HOP-62 cells assessed as reduction in cell viability measured after 48 hrs by SRB assay; assay type: functional
# [17] = system: K562; experiment: Induction of cell cycle arrest in human K562 cells assessed as accumulation of cells at S phase at 0.64 uM measured after 24 hrs by PI staining based flow cytometry analysis (reference value: 21.74%); assay type: functional
# [18] = system: K562; experiment: Induction of cell cycle arrest in human K562 cells assessed as accumulation of cells at G0/G1 phase at 1.25 uM measured after 24 hrs by PI staining based flow cytometry analysis (reference value: 46.67%); assay type: functional
# [19] = system: K562; experiment: Induction of apoptosis in human K562 cells assessed as late apoptotic cells at 5 uM incubated for 24 hrs by annexinV and propidium iodide staining based flow cytometry analysis (reference value: 1.342%); assay type: functional
# [20] = system: K562; experiment: Induction of cell cycle arrest in human K562 cells assessed as accumulation of cells at G0/G1 phase at 0.64 uM measured after 24 hrs by PI staining based flow cytometry analysis (reference value: 46.71%); assay type: functional
# [21] = system: K562; experiment: Induction of apoptosis in human K562 cells assessed as early apoptotic cells at 2.5 uM incubated for 24 hrs by annexinV and propidium iodide staining based flow cytometry analysis (reference value: 0.42%); assay type: functional
# [22] = system: K562; experiment: Induction of apoptosis in human K562 cells assessed as early apoptotic cells at 5 uM incubated for 24 hrs by annexinV and propidium iodide staining based flow cytometry analysis (reference value: 0.42%); assay type: functional
# [23] = system: K562; experiment: Induction of cell cycle arrest in human K562 cells assessed as accumulation of cells at G0/G1 phase at 2.5 uM measured after 24 hrs by PI staining based flow cytometry analysis (reference value: 46.67%); assay type: functional
# [24] = system: K562; experiment: Induction of apoptosis in human K562 cells assessed as late apoptotic cells at 2.5 uM incubated for 24 hrs by annexinV and propidium iodide staining based flow cytometry analysis (reference value: 1.34%); assay type: functional
# [25] = system: K562; experiment: Induction of autophagy in human K562 cells assessed as increase in beclin-1 level at 2.5 to 5 uM measured after 24 hrs by Western blotting analysis; assay type: functional, cell-based; settings: dose 2.5-5 µM
# [26] = system: K562; experiment: Induction of cell cycle arrest in human K562 cells assessed as accumulation of cells at G2/M phase at 2.5 uM measured after 24 hrs by PI staining based flow cytometry analysis (reference value: 29.44%); assay type: functional
# [27] = system: K562; experiment: Induction of cell cycle arrest in human K562 cells assessed as accumulation of cells at SubG1 phase at 2.5 uM measured after 24 hrs by PI staining based flow cytometry analysis (reference value: 3.43%); assay type: functional
# [28] = system: K562; experiment: Induction of cell cycle arrest in human K562 cells assessed as accumulation of cells at SubG1 phase at 1.28 uM measured after 24 hrs by PI staining based flow cytometry analysis (reference value: 2.48%); assay type: functional
# [29] = system: K562; experiment: Induction of cell cycle arrest in human K562 cells assessed as accumulation of cells at SubG1 phase at 5 uM measured after 24 hrs by PI staining based flow cytometry analysis (reference value: 3.43%); assay type: functional
# [30] = system: K562; experiment: Induction of cell cycle arrest in human K562 cells assessed as accumulation of cells at G2/M phase at 1.28 uM measured after 24 hrs by PI staining based flow cytometry analysis (reference value: 29.092%); assay type: functional
# [31] = system: K562; experiment: Induction of cell cycle arrest in human K562 cells assessed as accumulation of cells at G2/M phase at 0.64 uM measured after 24 hrs by PI staining based flow cytometry analysis (reference value: 25.62%); assay type: functional
# [32] = system: K562; experiment: Induction of apoptosis in human K562 cells assessed as early apoptotic cells at 1.28 uM incubated for 24 hrs by annexinV and propidium iodide staining based flow cytometry analysis (reference value: 1.17%); assay type: functional
# [33] = Cytotoxicity against African green monkey Vero cells assessed as decrease in number of viable cells at 30 uM measured after 48 hrs by SRB assay relative to control; assay type: toxicity, cell-based; settings: chlorocebus sabaeus
# [34] = system: K562; experiment: Induction of autophagy in human K562 cells assessed as increase in beclin-1 level at 2.56 uM measured after 24 hrs by Western blotting analysis; assay type: functional, cell-based
# [35] = system: K562; experiment: Induction of apoptosis in human K562 cells assessed as late apoptotic cells at 0.64 uM incubated for 24 hrs by annexinV and propidium iodide staining based flow cytometry analysis (reference value: 0.82%); assay type: functional
# [36] = system: K562; experiment: Induction of cell cycle arrest in human K562 cells assessed as accumulation of cells at G2/M phase at 2.56 uM measured after 24 hrs by PI staining based flow cytometry analysis (reference value: 25.62%); assay type: functional
# [37] = system: K562; experiment: Induction of cell cycle arrest in human K562 cells assessed as accumulation of cells at S phase at 0.64 uM measured after 24 hrs by PI staining based flow cytometry analysis (reference value: 24.75%); assay type: functional
# Mitogen-activated protein kinase 10, sequence (P53779 whole entry): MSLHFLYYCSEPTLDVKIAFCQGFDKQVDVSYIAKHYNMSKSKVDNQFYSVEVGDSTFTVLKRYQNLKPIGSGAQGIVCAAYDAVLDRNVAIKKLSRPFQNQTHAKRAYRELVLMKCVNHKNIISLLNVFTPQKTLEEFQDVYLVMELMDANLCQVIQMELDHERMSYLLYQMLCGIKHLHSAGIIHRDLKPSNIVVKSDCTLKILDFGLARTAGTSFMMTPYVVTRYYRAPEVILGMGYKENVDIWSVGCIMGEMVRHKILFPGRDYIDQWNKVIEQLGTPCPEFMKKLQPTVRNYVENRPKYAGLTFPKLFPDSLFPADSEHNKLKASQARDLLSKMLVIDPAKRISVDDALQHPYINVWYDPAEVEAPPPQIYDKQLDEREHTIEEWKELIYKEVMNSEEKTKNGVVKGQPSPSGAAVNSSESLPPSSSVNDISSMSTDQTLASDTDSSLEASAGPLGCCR
Structure (SMILES),inhibition [1],GI50 [2],GI50 [3],GI50 [4],GI50 [5],GI50 [6],GI50 [7],GI50 [8],GI50 [9],GI50 [10],GI50 [11],GI50 [12],GI50 [13],GI50 [14],GI50 [15],GI50 [16],also measured
CC(C)(C)n1cc(-c2ccnc(NCCCNS(=O)(=O)c3ccc(C(F)(F)F)cc3)c2)c(-c2cccc(O)c2)n1,98.6%,1980 nM,2330 nM,2070 nM,1990 nM,1720 nM,2980 nM,1650 nM,1690 nM,1610 nM,1880 nM,1940 nM,1890 nM,1610 nM,1860 nM,1930 nM,
CC(C)(C)n1cc(-c2ccnc(NCCCNS(=O)(=O)c3cccc4ccccc34)c2)c(-c2cccc(O)c2)n1,98.7%,1890 nM,2000 nM,2660 nM,1990 nM,1510 nM,2440 nM,1830 nM,1670 nM,1840 nM,2040 nM,2650 nM,1810 nM,1730 nM,1930 nM,1830 nM,
CC(C)(C)n1cc(-c2ccnc(NCCCNS(=O)(=O)c3ccc(Br)cc3)c2)c(-c2cccc(O)c2)n1,99.2%,2240 nM,2300 nM,2310 nM,2130 nM,1670 nM,2260 nM,1700 nM,1590 nM,1500 nM,2100 nM,2100 nM,1830 nM,1610 nM,1990 nM,2050 nM,
O=C1c2ccccc2-c2n[nH]c3cccc1c23,,55100 nM,20400 nM,25000 nM,12200 nM,16400 nM,16000 nM,32200 nM,14600 nM,30800 nM,,28200 nM,10900 nM,14800 nM,9860 nM,69300 nM,Activity [17]: 18.56%; Activity [18]: 34.01%; Activity [19]: 4.12%; Activity [20]: 27.69%; Activity [21]: 1.17%; Activity [22]: 1.5%; Activity [23]: 30.88%; Activity [24]: 3.86%; Activity [25]: Active; Activity [26]: 45.34%; Activity [27]: 4.35%; Activity [28]: 7.26%; Activity [29]: 4.01%; Activity [30]: 47.55%
CC(C)(C)n1cc(-c2ccnc(NCCCNS(=O)(=O)c3ccc(Cl)cc3)c2)c(-c2cccc(O)c2)n1,99.2%,1840 nM,1910 nM,2460 nM,1920 nM,1660 nM,2130 nM,1650 nM,1650 nM,1670 nM,1800 nM,2750 nM,1770 nM,1650 nM,1940 nM,1740 nM,Activity [31]: 51.01%; Activity [32]: 1.94%; Activity [33]: 53%; Activity [34]: inactive; Activity [35]: 0.48%; Activity [36]: 94.29%; Activity [37]: 30.99%
